The NIST ThermoML archive (doi:10.1016/j.fluid.2015.03.015)

Experiment: refractive index (other wavelength) (dimensionless); xn = mol fraction of the nth substance listed

CCCC(C)O (centres undefined) [pentan-2-ol] + CCCCCCCC[n+]1ccn(C)c1.F[B-](F)(F)F
Minimum deviation
Settings	refractive index
294.64 K, Liquid mixture 2, Wavelength=623.8 nm, x2 = 0.168	1.4134
294.68 K, Liquid mixture 1, Wavelength=623.8 nm, x2 = 0.065	1.4084
294.68 K, Liquid mixture 2, Wavelength=623.8 nm, x2 = 0.166	1.4133
294.73 K, Liquid mixture 1, Wavelength=623.8 nm, x2 = 0.067	1.4085
294.73 K, Liquid mixture 2, Wavelength=623.8 nm, x2 = 0.162	1.4131
294.77 K, Liquid mixture 1, Wavelength=623.8 nm, x2 = 0.069	1.4086
294.77 K, Liquid mixture 2, Wavelength=623.8 nm, x2 = 0.157	1.4129
294.8 K, Liquid mixture 1, Wavelength=623.8 nm, x2 = 0.071	1.4087
294.8 K, Liquid mixture 2, Wavelength=623.8 nm, x2 = 0.153	1.4127
294.83 K, Liquid mixture 1, Wavelength=623.8 nm, x2 = 0.073	1.4088
294.83 K, Liquid mixture 2, Wavelength=623.8 nm, x2 = 0.149	1.4125
294.87 K, Liquid mixture 1, Wavelength=623.8 nm, x2 = 0.077	1.409
294.87 K, Liquid mixture 2, Wavelength=623.8 nm, x2 = 0.145	1.4123
294.88 K, Liquid mixture 1, Wavelength=623.8 nm, x2 = 0.079	1.4091
294.88 K, Liquid mixture 2, Wavelength=623.8 nm, x2 = 0.143	1.4122
294.89 K, Liquid mixture 1, Wavelength=623.8 nm, x2 = 0.083	1.4093
294.89 K, Liquid mixture 2, Wavelength=623.8 nm, x2 = 0.141	1.4121
294.9 K, Liquid mixture 1, Wavelength=623.8 nm, x2 = 0.085	1.4094
294.9 K, Liquid mixture 2, Wavelength=623.8 nm, x2 = 0.139	1.412
294.91 K, Liquid mixture 1, Wavelength=623.8 nm, x2 = 0.085	1.4094
294.91 K, Liquid mixture 1, Wavelength=623.8 nm, x2 = 0.087	1.4095
294.91 K, Liquid mixture 2, Wavelength=623.8 nm, x2 = 0.132	1.4117
294.91 K, Liquid mixture 2, Wavelength=623.8 nm, x2 = 0.134	1.4118
294.92 K, Liquid mixture 1, Wavelength=623.8 nm, x2 = 0.088	1.4095
294.92 K, Liquid mixture 1, Wavelength=623.8 nm, x2 = 0.09	1.4096
294.92 K, Liquid mixture 2, Wavelength=623.8 nm, x2 = 0.128	1.4115
294.92 K, Liquid mixture 2, Wavelength=623.8 nm, x2 = 0.13	1.4116
294.93 K, Liquid mixture 1, Wavelength=623.8 nm, x2 = 0.091	1.4097
294.93 K, Liquid mixture 1, Wavelength=623.8 nm, x2 = 0.093	1.4098
294.93 K, Liquid mixture 1, Wavelength=623.8 nm, x2 = 0.097	1.41
294.93 K, Liquid mixture 1, Wavelength=623.8 nm, x2 = 0.099	1.4101
294.93 K, Liquid mixture 2, Wavelength=623.8 nm, x2 = 0.118	1.411
294.93 K, Liquid mixture 2, Wavelength=623.8 nm, x2 = 0.122	1.4112
294.93 K, Liquid mixture 2, Wavelength=623.8 nm, x2 = 0.124	1.4113
294.93 K, Liquid mixture 2, Wavelength=623.8 nm, x2 = 0.126	1.4114

85 kPa, Liquid, Wavelength=632.8 nm, Minimum Deviation
Settings	refractive index
294.98 K, x2 = 0.798	1.4299
294.98 K, x2 = 0.899	1.4314
295.13 K, x2 = 0.7	1.4281
295.53 K, x2 = 0.099	1.4101
295.95 K, x2 = 0.4	1.4213
296.02 K, x2 = 0.3	1.4182
296.02 K, x2 = 0.599	1.426
296.13 K, x2 = 0.5	1.4238
297.03 K, x2 = 0.798	1.4293
297.03 K, x2 = 0.899	1.4308
297.19 K, x2 = 0.7	1.4275
297.57 K, x2 = 0.3	1.4177
297.68 K, x2 = 0.5	1.4233
297.86 K, x2 = 0.099	1.4092
298.01 K, x2 = 0.4	1.4207
299.09 K, x2 = 0.3	1.4172
299.11 K, x2 = 0.798	1.4287
299.11 K, x2 = 0.899	1.4303
299.22 K, x2 = 0.2	1.4133
299.22 K, x2 = 0.7	1.4269
299.24 K, x2 = 0.5	1.4229
299.91 K, x2 = 0.099	1.4085
300.06 K, x2 = 0.4	1.4201
300.66 K, x2 = 0.3	1.4167
300.8 K, x2 = 0.2	1.4128
300.8 K, x2 = 0.5	1.4224
302 K, x2 = 0.099	1.4077
302.14 K, x2 = 0.4	1.4194
302.24 K, x2 = 0.3	1.4162
302.34 K, x2 = 0.5	1.4219
302.35 K, x2 = 0.2	1.4122
303.8 K, x2 = 0.3	1.4156
303.88 K, x2 = 0.2	1.4117
304.07 K, x2 = 0.099	1.4069
304.17 K, x2 = 0.4	1.4187
304.17 K, x2 = 0.5	1.4213
305.44 K, x2 = 0.2	1.4111
306.2 K, x2 = 0.099	1.4061
307.01 K, x2 = 0.2	1.4105
